In PMC5341752, “New bipyridine gold(III) dithiocarbamate-containing complexes exerted a potent anticancer activity against cisplatin-resistant cancer cells independent of p53 status” (Oncotarget, 2016):

Assays:
[1] = tested on: tumor cells; experiment: Cytochrome-c release, flow cytometry; type: cell-based, human; settings: IC75, 24 h
[2] = tested on: PC3 cells; experiment: Growth inhibition, MTT assay, PC3 cells; type: cell-based, human; settings: 72 h exposure; for IC50: mean ± SEM
Experimental: (§1) PC3 and MCF-7 cells (2.5 × 10^3), A2780, A2780cis (4.0 × 10^3), A2780CP-16 and lung cancer cells (H460, A549, H226, H838, H157, H1975, H2122, SKLU1 and H1299) were seeded in 96-well flat-bottomed microplates (100 μL) and incubated for 24 h (to allow cell adhesion) before drug testing. The medium was then removed and replaced with fresh medium containing the gold(III) complexes (compound 1–9) to be tested at increasing concentrations (from 0.01 to 100 μM) at 37°C for 72 h. Each treatment was performed in triplicate. Cell proliferation was assayed using the MTT assay. Alternatively, L-540 cells (2.0 × 10^5/mL) were seeded in 96-well plates and treated as previously described. After treatment, cell proliferation was evaluated by the MTS assay (Promega). IC50 (i.e., the half maximal inhibitory concentration representing the concentration of a substance required for 50% in vitro inhibition) IC75 and IC90 values (Supplementary Table S1) were calculated using the CalcuSyn software (Biosoft, Ferguson, MO, USA). Dependence of activity on p53 was assessed in A2780 cells following p53 knockdown by CRISPR [48].

[3] = tested on: A2780, A2780cis, MCF-7, PC3, L-540 cells; experiment: Caspase 3 activation, FLICA reagent, flow cytometry; type: cell-based, human; settings: IC75, 0, 24 and 48 h
Experimental: (§2) PC3 (2.5 × 10^4), MCF-7 (5.0 × 10^4), A2780 and A2780cis (5.0 × 10^4), and L-540 cells (2.0 × 10^5/mL) were incubated in six-well plates with compound 1 (IC75) (Figure 1) for 72 h. Annexin-V binding (Becton-Dickinson [BD] Pharmingen, San Jose, CA) together with propidium iodide (PI) staining was detected in tumor cells by flow cytometry, as described. Caspase 3 and 9 activation was evaluated using the fluorochrome inhibitors of caspases (FLICA) Caspa-TagTM caspase-3/7 (FAM-DEVD-FMK) and caspase 9 (FAM-LETD) (Chemicon International, Milan, Italy). Briefly, cells were treated with compound 1 (IC75), then harvested, washed and resuspended in warmed complete medium supplemented with FLICA for 1 h and then immediately analyzed by flow cytometry. DNA fragmentation was assessed using the Apo-Direct kit (Becton-Dickinson Pharmigen, CA, USA) according to manufacturer's instructions. […] Red fluorescence was immediately analyzed by flow cytometry. Viable cells were identified according to their forward and right-angle scattering, electronically gated and analyzed on a FACScan flow cytometer (BD), using CellQuest software (BD). […] After 72 h, ROS formation and viable cells number were evaluated by flow cytometry and trypan blue dye exclusion assay, respectively. […]

[4] = tested on: A2780, A2780cis, MCF-7, PC3, L-540 cells; experiment: Apoptosis, Annexin V/PI double staining, flow cytometry; type: cell-based, human; settings: IC75, 72 h
Experimental: as §2

[5] = Stability by UV-Vis spectra in DMSO over 24 hours at 37°C; type: physicochemical; settings: DMSO solution
Experimental: Electronic spectra were recorded on each complex freshly prepared in DMSO solution at room temperature. Then, their electronic spectra were monitored over 24 hours at 37°C. The resulting UV-Vis absorption spectra of compound 1, 2 and 3 are shown in Supplementary Figure S4A–S4C.

[6] = tested on: L-540 cells; experiment: Growth inhibition, MTS assay, L-540 cells; type: cell-based, human; settings: 72 h exposure; for IC50: mean ± SEM
Experimental: as §1

[7] = tested on: A2780 cells; experiment: Growth inhibition, MTT assay, A2780 cells; type: cell-based, human; settings: 72 h exposure; for IC50: mean ± SEM
Experimental: as §1

[8] = tested on: tumor cells; experiment: Caspase 9 activation, FLICA reagent, flow cytometry; type: cell-based, human; settings: IC75, 24 h
Experimental: as §2

[9] = tested on: tumor cells; experiment: Mitochondrial ROS, MitoSox, flow cytometry; type: cell-based, human; settings: IC75, 72 h
Experimental: as §2

[10] = tested on: tumor cells; experiment: Mitochondrial membrane permeabilization, CMXRos, flow cytometry; type: cell-based, human; settings: IC75, 24 h
Experimental: as §2

[11] = tested on: A2780, A2780cis, MCF-7, PC3, L-540 cells; experiment: DNA fragmentation, Apo-Direct, flow cytometry; type: cell-based, human; settings: IC75, 72 h
Experimental: as §2

[12] = tested on: MCF-7 cells; experiment: Growth inhibition, MTT assay, MCF-7 cells; type: cell-based, human; settings: for IC50: mean ± SEM
Experimental: as §1

[13] = tested on: tumor cells; experiment: Cell cycle progression; type: cell-based; settings: data not shown
[14] = tested on: human Mesenchymal stromal cells (MSCs); experiment: Proliferation of normal Mesenchymal stromal cells, MTT assay; type: cell-based; settings: 72 h
Experimental: Bone Marrow (BM) derived human Mesenchymal Stromal Cells (MSCs) were from Lonza (Lonza, Verviers, Belgium). MSCs were maintained in MSGM bullet kit (Lonza) and experiments were performed in DMEM medium (Cambrex Bio Science, Milano, Italy) supplemented with 10% FCS. To evaluate effects of compound 1, MSCs (5.0 × 10^3) were seeded in 96-well flat-bottomed microplates (100 μL) and incubated for 24 h (to allow cell adhesion) before drug testing. The medium was then removed and replaced with fresh medium containing compound 1 to be tested at increasing concentrations (from 0.1 to 1 μM) at 37°C for 72 h. Each treatment was performed in triplicate. Cell proliferation was assayed using the MTT assay.

[15] = tested on: A2780cis cells; experiment: Growth inhibition, MTT assay, cisplatin-resistant A2780cis cells; type: cell-based, human; settings: for IC50: mean ± SEM; for Fold resistance A2780cis/A2780 ratio: ratio A2780cis IC50/A2780 IC50
Experimental: as §1

[16] = tested on: A2780 CRISPR Control cells (WT-p53); experiment: MTT assay in A2780 clone transfected with CRISPR control plasmid; type: cell-based, human; settings: mean ± SEM
Experimental: as §1

[17] = tested on: A2780 CRISPR p53 KO cells; experiment: MTT assay in A2780 clone with p53 knocked out by CRISPR/Cas9; type: cell-based, human; settings: mean ± SEM
Experimental: as §1

[18] = tested on: NSCLC cell lines (H460, A549, H226, H838, H157, H1975, H2122, SKLU1, H1299); experiment: Cytotoxicity in a panel of NSCLC cell lines, MTT assay; type: cell-based; settings: all NSCLC cell lines
Experimental: as §1

[19] = tested on: 2780CP cells; set-up: method as in PMID 10643661; settings: 2780CP-16 versus A2780; cited from earlier work

Compound: CN(C)C1=[S+][Au-]2([S]1)[n+]1ccccc1-c1cccc[n+]12.[Cl-].[Cl-] [Compound 1, [Au(BPY)(DMTC)]Cl2]
- cytochrome-c release from the mitochondria [1]: cytochrome-c (Cyt-c) release
- IC75 PC3 [2]: 0.73 ± 0.07 µM
- IC90 [2]: 910 ± 110 nM
- IC50 [2]: 420 ± 40 nM
- caspase 3 activation [3]: induced a time-dependent activation of caspase 3
- apoptosis (Annexin-V/PI) [4]: induced apoptosis in the cell lines tested
- stability by UV spectra [5]: confirm the stability under physiological temperature
- IC75 L-540 [6]: 3.50 ± 0.32 µM
- IC90 [6]: 4.2 ± 0.39 µM
- IC50 [6]: 2.68 ± 0.24 µM
- IC75 A2780 [7]: 0.45 ± 0.04 µM
- IC90 [7]: 600 ± 50 nM
- IC50 [7]: 180 ± 20 nM
- caspase 9 activation [8]: induced activation of caspase 9
- mitochondrial ROS levels [9]: increased mitochondrial ROS levels
- mitochondrial membrane permeabilization [10]: promoted mitochondrial membrane permeabilization
- DNA fragmentation (Apo-Direct) [11]: Apoptosis induction was confirmed by DNA fragmentation
- IC75 MCF-7 ([12]; 72 h exposure, MTT): 0.51 ± 0.05 µM
- IC90 ([12]; 72 h exposure, MTT): 740 ± 80 nM
- IC50 ([12]; 72 h exposure, MTT): 270 ± 20 nM
- fold more active than cisplatin in inhibiting cell proliferation ([12]; MCF-7 cells): ~80 fold
- cell cycle progression [13]: only slightly affected
- IC50 [14]: 960 nM
- IC75 A2780cis ([15]; 72 h exposure, MTT): 0.43 ± 0.04 µM
- IC90 ([15]; 72 h exposure, MTT): 560 ± 60 nM
- IC50 ([15]; 72 h exposure, MTT): 170 ± 10 nM
- fold more active than cisplatin in inhibiting cell proliferation ([15]; A2780cis cells): about 60 fold

Compound: CCN(CC)C(=S)[S-].[Au+3].[Cl-].[Cl-].c1ccc(-c2ccccn2)nc1 [Compound 2, [Au(BPY)(DETC)]Cl2]
- IC50 [2]: 700 ± 60 nM
- stability by UV spectra [5]: confirm the stability under physiological temperature
- IC50 [6]: 2.8 ± 0.25 µM
- IC50 [7]: 240 ± 20 nM
- IC50 ([12]; 72 h exposure, MTT): 270 ± 20 nM
- IC50 ([15]; 72 h exposure, MTT): 180 ± 10 nM

Compound: S=C([S-])N(Cc1ccccc1)Cc1ccccc1.[Au+3].[Cl-].[Cl-].c1ccc(-c2ccccn2)nc1 [Compound 3, [Au(BPY)(DBTC)]Cl2]
- IC50 [2]: 11200 ± 1000 nM
- stability by UV spectra [5]: confirm the stability under physiological temperature
- IC50 [6]: 12 ± 1.08 µM
- IC50 [7]: 4660 ± 130 nM
- IC50 [16]: 870 ± 110 nM
- IC50 ([12]; 72 h exposure, MTT): 23000 ± 2070 nM
- IC50 [17]: 1130 ± 390 nM
- IC50 ([15]; 72 h exposure, MTT): 14300 ± 1120 nM
- Fold resistance A2780cis/A2780 ratio [15]: 3.07

Compound: Cc1ccc2[n+](c1)[Au-]1([S]C(N(C)C)=[S+]1)[n+]1cc(C)ccc1-2.[Cl-].[Cl-] [Compound 4, [Au(5,5′-Me2BPY)(DMTC)]Cl2]
- IC50 [2]: 590 ± 50 nM
- fold greater potency than compounds 3, 6 and 9 [18]: at least 10 fold
- IC50 [6]: 2.7 ± 0.22 µM
- IC50 [7]: 280 ± 30 nM
- IC50 [16]: 87 ± 3 nM
- IC50 ([12]; 72 h exposure, MTT): 280 ± 20 nM
- IC50 [17]: 83 ± 3 nM
- IC50 ([15]; 72 h exposure, MTT): 170 ± 10 nM

Compound: CCN(CC)C1=[S+][Au-]2([S]1)[n+]1cc(C)ccc1-c1ccc(C)c[n+]12.Cl.Cl [Compound 5, [Au(5,5′-Me2BPY)(DETC)]Cl2]
- IC50 [2]: 860 ± 80 nM
- IC50 [6]: 2.9 ± 0.26 µM
- IC50 [7]: 590 ± 50 nM
- IC50 ([12]; 72 h exposure, MTT): 290 ± 30 nM
- IC50 ([15]; 72 h exposure, MTT): 230 ± 20 nM

Compound: Cc1ccc2[n+](c1)[Au-]1([S]C(N(Cc3ccccc3)Cc3ccccc3)=[S+]1)[n+]1cc(C)ccc1-2.[Cl-].[Cl-] [Compound 6, [Au(5,5′-Me2BPY)(DBTC)]Cl2]
- IC50 [2]: 11600 ± 1040 nM
- IC50 [6]: 6.5 ± 0.06 µM
- IC50 [7]: 6350 ± 60 nM
- IC50 ([12]; 72 h exposure, MTT): 18000 ± 1620 nM
- IC50 ([15]; 72 h exposure, MTT): 15700 ± 1410 nM
- Fold resistance A2780cis/A2780 ratio [15]: 2.47

Compound: Cc1cccc2[n+]1[Au-]1([S]C(N(C)C)=[S+]1)[n+]1c(C)cccc1-2.[Cl-].[Cl-] [Compound 7, [Au(6,6′-Me2BPY)(DMTC)]Cl2]
- IC50 [2]: 770 ± 70 nM
- fold greater potency than compounds 3, 6 and 9 [18]: at least 10 fold
- IC50 [6]: 3.6 ± 0.32 µM
- IC50 [7]: 270 ± 20 nM
- IC50 ([12]; 72 h exposure, MTT): 350 ± 30 nM
- IC50 ([15]; 72 h exposure, MTT): 230 ± 20 nM

Compound: CCN(CC)C1=[S+][Au-]2([S]1)[n+]1c(C)cccc1-c1cccc(C)[n+]12.Cl.Cl [Compound 8, [Au(6,6′-Me2BPY)(DETC)]Cl2]
- IC50 [2]: 1600 ± 140 nM
- IC50 [6]: 6.2 ± 0.56 µM
- IC50 [7]: 730 ± 60 nM
- IC50 ([12]; 72 h exposure, MTT): 470 ± 40 nM
- IC50 ([15]; 72 h exposure, MTT): 450 ± 30 nM

Compound: Cc1cccc2[n+]1[Au-]1([S]C(N(Cc3ccccc3)Cc3ccccc3)=[S+]1)[n+]1c(C)cccc1-2.[Cl-].[Cl-] [Compound 9, [Au(6,6′-Me2BPY)(DBTC)]Cl2]
- IC50 [2]: 11500 ± 1030 nM
- IC50 [6]: 35.8 ± 3.22 µM
- IC50 [7]: 6700 ± 600 nM
- IC50 ([12]; 72 h exposure, MTT): 31000 ± 2790 nM
- IC50 ([15]; 72 h exposure, MTT): 16000 ± 1440 nM
- Fold resistance A2780cis/A2780 ratio [15]: 2.39

Compound: cis-[Pt(NH3)2Cl2] [Cisplatin]
- IC50 [2]: 3300 ± 300 nM
- IC50 [6]: 2.5 ± 0.1 µM
- IC50 [7]: 1500 ± 100 nM
- fold cisplatin resistance of 2780CP cells [19]: 20 fold
- IC50 ([12]; 72 h exposure, MTT): 22200 ± 200 nM
- IC50 ([15]; 72 h exposure, MTT): 10400 ± 900 nM
- Fold resistance A2780cis/A2780 ratio [15]: 6.93
- Fold resistance A2780cis/A2780 ratio ([15]; listed as cisplatin): about 7
